Measured values taken from US5168102A, “Endocrine manipulation to improve body composition of poultry” (priority 1990, dated 1992).

How the values were obtained:
[1] = Example 1: body composition (proximate analysis of carcass); assay type: in vivo, broiler cockerels (Ross X Arbor Acre strain)
Excerpt: (§1) The purpose of this study was to determine the effect manipulating blood levels of thyroid hormones and/or growth hormone on growth performance and body composition of broiler chickens. […] Purified natural chicken growth hormone (ncGH) was obtained from the Research and Education Center, Harbor-UCLA Medical Center, Torrance, Calif. […] The premix (200 g) was then used to prepare 50 kg batches of each experimental diet according to the formula for broiler-finisher ration described in Table 1. The diet containing 0.5% PTU was prepared by mixing 250 g of PTU into 49.75 kg of the basal ration (Table 1).
(§2) Broiler cockerels (Ross X Arbor Acre strain) were raised to 3 weeks-of-age in a battery-brooder and then transferred to wire grow-out cages (4 birds/pen) held in two controlled-environment rooms (10 pens/room). Beginning at 3 weeks of age, eight birds (2 pens of 4 birds) were randomly assigned to each of 10 treatments. The chickens were provided the experimental diets and water ad libitum. […] For injection, the ncGH was reconstituted in sterile 0.025M sodium bicarbonate buffer (pH 9.8). The 10 treatments were administered for 21 days (i.e., from 3 to 6 weeks of age).
(§3) Measurement of body weight and feed consumption at weekly intervals allowed calculation of the average daily gain (ADG, g/bird/day), average daily feed consumption (ADFC, g/bird/day) and the feed-to-gain ratio (FIG, kg feed/kg gain) over the 21 day experimental period. Blood samples were taken each week (4, 5, and 6 weeks) just before (pre-injection) and 4 hours post-injection of ncGH. […] At the conclusion of the study, birds were killed and the carcasses frozen for proximate analysis. The frozen carcasses were ground in a meat grinder and aliquots of each ground carcass taken for determination of moisture, protein, fat and ash by established analytical procedures (Official Method of Analysis, Edition 13, W. Horwitz ed., Association of Official Analytical Chemist, Washington, D.C., 1980). Body composition data are presented as a percent of live weight at 6 weeks-of-age. Least squares regression analysis was used to test for significant differences (P<0.05) due treatment.

[2] = hypothyroid state; cited from earlier work
[3] = Example 1: plasma hormone concentrations (radioimmunoassays)
Excerpt: as §1, §2, §3

[4] = Example 1: growth and feed efficiency of broiler cockerels fed thyroid-active substances with or without daily ncGH injection; assay type: in vivo, broiler cockerels (Ross X Arbor Acre strain)
Excerpt: as §1, §2, §3

[5] = at the doses tested
Excerpt: Referring now to broiler chickens as a benchmark for the beneficial effects of this invention, it must be noted that these chickens grow from a weight of 30 to 50 grams at hatching to about 1.5-3 or even as much as 5 kilograms of body weight at market age. Of this market weight, 15-20 wt.-% is protein, 2-3 wt.-% is inorganic (showing up as ash in proximate analysis of body composition), and more than 10 wt.-% (e.g. 10-20 wt.-%) is fat, which means that the protein:fat ratio (by weight) is likely to be at or below 1.5:1 and certainly well below 2:1.

[6] = injected; commercial preparations from cattle and swine pancreases; cited from earlier work
[7] = Group 1, dietary, 6 weeks-of-age, N = 8

CCCc1cc(=O)[nH]c(=S)[nH]1 [PTU, 6-N-propyl-2-thiouracil]
Body composition: Ash [1, 7]: 2.17 ± .06 % BW
Body composition: Fat [1, 7]: 18.2 ± .80 % BW
Body composition: Protein [1, 7]: 17.2 ± .20 % BW
Body composition: Water [1, 7]: 61.9 ± .73 % BW
body fat content, increase ([1]; vs CF group): 50%
effect on body protein, water and ash ([1]; vs CF group): at the expense of body ash, protein and water
body fat [2]: increased accumulation of body fat
plasma insulin levels [2]: elevated plasma insulin levels
average plasma T3 level ([3]; Group 1): 1.5 ng/mL
I/G Molar Ratio ([3]; Group 1, dietary, N = 24): 6.35
plasma Glucagon (G) ([3]; Group 1, dietary, N = 24): 225 pg/mL
plasma Insulin (I) ([3]; Group 1, dietary, N = 24): 2349 pg/mL
average plasma T3 level, reduction ([3]; vs CF birds (P<0.05)): 53%
plasma I/G molar ratio, fold greater ([3]; vs CF group (P<0.05)): 2.9 times
plasma GH level, fold higher ([3]; vs CF treatment): 1.9 times
plasma T4 level, reduction ([3]; vs average of CF and TRH treatments (P<0.05)): 76%
BW (body weight) ([4]; 1 ppm T3, 1 ppm T4, 5 ppm TRH or 0.5% PTU in feed, 3 to 6 weeks of age, Group 1, mean ±SEM): 1.42 ± .05 kg
effect on growth rate and feed efficiency ([4]; Group 1, dietary): depressed growth rate and reduced feed conversion
ADFC (average daily feed consumption) ([4]; Group 1, dietary, 21 days): 92.3 ± 7.9 g/bird/day
ADG (average daily weight gain) ([4]; Group 1, dietary, 21 days): 39.2 ± 4.0 g/bird/day
FTG (feed-to-gain ratio) ([4]; Group 1, dietary, 21 days): 2.36 ± .04 kg feed/kg gain
final body weight, reduction ([4]; vs birds fed CF or thyroid hormones (P<0.05)): 18%
effect on protein:fat ratio [5]: seemed to decrease the protein:fat ratio

glucagon
biological and metabolic activity in chickens [6]: the same biological and metabolic activity as endogenous glucagon
